Here are results for 109 compounds from a melting point compilation (Tetko et al.).

A word on the melting point: it is the temperature, or range, at which the solid turns liquid. In the case of `Cc1nc2ccccc2c(C(=O)O)c1N`, the melting point was in the range of 204 to 205 °C.

For the compound `COc1ccc(C(=O)c2ccc(C)cc2)cc1OC`, the melting point came out at 109 °C.

As for `COc1ccc(C2c3cc(OC)c(OC)cc3CCN2C(C)=O)cc1` (centres undefined), the melting point fell in the range of 105 to 107 °C.

As to `COc1cc2cncc(Cc3ccccc3)c2cc1O`, the melting point turned out to be 193 °C.

The compound `COc1cc(OC)cc(C(=O)Cl)c1` yielded a melting point of 43 °C.

`CC(C)(C(N)=O)n1nc2ccccc2n1` gave a melting point of 174 °C.

Compound `Nc1ccccc1C(=O)c1ccccc1` returned a melting point of 107 °C.

In turn, `Nc1ccc(C(F)(F)F)cc1Br` registered a melting point of 29.5 °C.

As to `CC12CCC3C(CCC4CCCCC43C)C1CCC2=O` (centres undefined), the melting point is 121 °C.

In turn, `CCOC(=O)C1(c2cccc(O)c2)CCN(C)CC1` showed a melting point of 110 °C.

Turning to `O=Cc1ccc(C=O)c([N+](=O)[O-])c1`, the melting point was found to be 97 °C.

For `Nc1nccc(-c2ccncc2)n1`, the melting point is 81.3 °C.

Take `CC(C)(C)OC(=O)NN`: the melting point is 39 °C.

In the case of `CCCCCCCCCCCCCCCCCCCC1CCCCC1`, the melting point turned out to be 45 °C.

In turn, `CC(=O)OC1CCC2(C)C3CCC4=C(CCC4(C)C#CCl)C3CCC2(C)C1` (centres undefined) yielded a melting point of 109 to 110 °C.

Turning to `OCc1cccc2cccc(Br)c12`, the melting point fell in the range of 89 to 90 °C.

As for `CCCCCCCCCCCCN`, the melting point was 28.3 °C.

Regarding `NS(=O)(=O)c1cc([N+](=O)[O-])c(Cl)s1`, the melting point fell in the range of 160 to 162 °C.

As for `Cc1cccc(C)c1NC(=O)C(C)Br` (centres undefined), the melting point fell in the range of 163 to 165 °C.

In the case of `CC(C)(C)c1cc(N)c(C(N)=O)s1`, the melting point lay in the range of 146 to 148 °C.

Regarding `Cc1cc(I)cc(C)c1O`, the melting point lay in the range of 99 to 102 °C.

With `CC1=NN(c2ccccc2)C(=O)C1=CC1C(=O)N(c2ccccc2)N=C1C` (centres undefined), the melting point lay in the range of 180 to 181 °C.

In turn, `CN1CCc2cc3c(cc2C1C1OC(=O)c2c1ccc1c2OCO1)OCO3` (centres undefined) returned a melting point of 194 °C.

Turning to `O=c1cc(-c2ccccc2)oc2cc(O)ccc12`, the melting point was 246 °C.

Consider `Nc1ccc(C2(c3ccc(N)cc3)OC(=O)c3ccccc32)cc1`, for which the melting point stood at 203 °C.

The compound `Fc1ccccc1-c1ccccc1F` displayed a melting point of 112 to 114 °C.

As for `O=Cc1c[nH]c2ccc(OCc3ccccc3)cc12`, the melting point stood at 241 °C.

In the case of `Cc1nc(-c2ccc(C(F)(F)F)cc2)sc1C(=O)Cl`, the melting point was 85 to 86 °C.

For the compound `OCc1cccc(-c2ccsc2)c1`, the melting point fell in the range of 88 to 90 °C.

Consider `CCCCCCn1c(=O)c2c(ncn2C)n(C)c1=O`, for which the melting point is 82 °C.

`CC(C)=C/C=C/C=N/Nc1ccc([N+](=O)[O-])cc1[N+](=O)[O-]` came in with a melting point of 205 to 206 °C.

`OCc1cc(-c2ccccc2)on1`: the melting point lay in the range of 99 to 102 °C.

As for `O=C(O)C(c1ccc(Cl)cc1)c1ccc(Cl)cc1`, the melting point amounted to 168 °C.

`CCCNCCC` displayed a melting point of -63 °C.

In turn, `CC(C)(C)OC(=O)NCc1ncccc1F` gave a melting point of 56 to 58 °C.

The compound `CCOC(=O)CNc1ccc(I)cc1` showed a melting point of 84 to 86 °C.

With `C=CC(=O)NC(O)C(O)NC(=O)C=C` (centres undefined), the melting point is 142 °C.

Regarding `COC(=O)c1cc([N+](=O)[O-])ccc1OC`, the melting point is 101 °C.

Compound `CCOC(=O)CCC(=O)CC1(O)C2(Cl)C3(Cl)C4(Cl)C(Cl)(Cl)C5(Cl)C3(Cl)C1(Cl)C5(Cl)C42Cl` (centres undefined) yielded a melting point of 91 °C.

For the compound `OCC(c1ccccc1)c1ccccc1`, the melting point came out at 64.5 °C.

Compound `O=C(O)/C(=C\c1ccccc1)c1ccccc1[N+](=O)[O-]` had a melting point of 192 °C.

As for `O=C(OC(=O)C(F)(F)C(F)(F)C(F)(F)F)C(F)(F)C(F)(F)C(F)(F)F`, the melting point is -43 °C.

Consider `c1ccc(-c2nc[nH]c2-c2ccccc2)cc1`, for which the melting point was found to be 232 °C.

`COc1ccc(CCl)cc1` came in with a melting point of 24.5 °C.

`CC(=O)Oc1c(-c2ccc(-c3[nH]c4cc([N+](=O)[O-])ccc4c3OC(C)=O)cc2)[nH]c2cc([N+](=O)[O-])ccc12` had a melting point of 280 °C.

As to `CCCCOCCOCCCC`, the melting point was -69.1 °C.

In turn, `O=C(O)[C@@H]1CCCC[C@H]1C(=O)c1cccs1` (relative stereo) gave a melting point of 179 to 184 °C.

Take `N#Cc1c(N2CCCC2)nc(N)c2c(-c3ccccc3)cc(-c3ccccc3)nc12`: the melting point is 236 °C.

As for `Cc1nc(C(=O)O)c(C)o1`, the melting point is 232 to 233 °C.

For `CC(=O)c1nn(-c2ccccc2[N+](=O)[O-])c(=N)s1`, the melting point turned out to be 186 °C.

Compound `COC(=O)c1cccc(Cn2nc(C)c(Br)c2C)c1` had a melting point of 105 to 107 °C.

As to `Clc1nc(Br)[nH]c1Cl`, the melting point was in the range of 215 to 216 °C.

With `CC12CCCC1C1CC=C3CC(O)CCC3(C)C1CC2` (centres undefined), the melting point came to 136 °C.

`O=C(C=CC(=O)Oc1ccccc1)Oc1ccccc1` had a melting point of 73 °C.

Take `COP(=S)(OC)SCN1C(=O)c2ccccc2C1=O`: the melting point worked out at 72 °C.

For `C/C(=N\NC(N)=O)C1=CC[C@]2(C)C3CCC4=C(CCC4(C)C)C3CC[C@H]2C1` (some centres undefined), the melting point turned out to be 239 °C.

In the case of `O=C1NC(=O)C(=NNc2ccccc2)C(=O)N1`, the melting point lay within 309 to 310 °C.

As for `C#CC[C@H](NC(=O)OCC1c2ccccc2-c2ccccc21)C(=O)O`, the melting point was determined as 175 °C.

In turn, `CCCCCCCOc1ccc(-c2ccc(C#N)cc2)cc1` yielded a melting point of 54 °C.

In the case of `CSC(=NC#N)SC`, the melting point came out at 54 °C.

Take `O=C(O)c1ccc(C(=O)O)c(C(=O)O)c1`: the melting point is 231 °C.

Regarding `CCCOC(=O)Cn1cc(I)c(=O)c(I)c1`, the melting point was 186 °C.

Compound `COC(=O)c1ccc([N+](=O)[O-])c(O)c1` yielded a melting point of 91 °C.

Turning to `N=C(N)NCCS(=O)(=O)O`, the melting point fell in the range of 263 to 265 °C.

Compound `C1C2CC3CC1CC(SSC14CC5CC(CC(C5)C1)C4)(C2)C3` displayed a melting point of 225 to 228 °C.

The compound `Cc1csc2ncnc(Cl)c12` returned a melting point of 137 to 138 °C.

As to `OCc1ccc(-c2cc(C(F)(F)F)cc(C(F)(F)F)c2)o1`, the melting point was 110 to 113 °C.

Consider `OCC1OC(O)C(O)C(O)C1O` (centres undefined), for which the melting point was determined as 170 °C.

`CCOC(=O)c1cnc2nc(SC)nn2c1N` returned a melting point of 211 to 213 °C.

Consider `OCc1cc2cccnc2s1`, for which the melting point lay within 47 to 49 °C.

As to `NNC(=O)CSc1ccccc1[N+](=O)[O-]`, the melting point was 161 to 171 °C.

`O=C(O)C(O)c1cc(F)cc(F)c1` (centres undefined): the melting point was found to be 136 °C.

Regarding `O=C1c2[nH]c3ccc(Br)cc3c2CCN1Cc1ccc(Cl)cc1`, the melting point worked out at 233 °C.

The compound `O=C(O)[C@@H]1CCN1C(=O)OCC1c2ccccc2-c2ccccc21` displayed a melting point of 135 °C.

On to `O=C(O)CN(CC(=O)O)Cc1cc2c(cc1O)Oc1cc(O)c(CN(CC(=O)O)CC(=O)O)cc1C21OC(=O)c2ccccc21`, for which the melting point is 200 °C.

Compound `CC(=O)c1cc(C)c(C)cc1O` showed a melting point of 69 to 73 °C.

`CC1=C(CCC(=O)O)c2cc3nc(cc4[nH]c(cc5[nH]c(cc1n2)c(C)c5C(C)O)c(C)c4C(C)O)C(C)=C3CCC(=O)O` (centres undefined) showed a melting point of 172 °C.

In the case of `COc1cc(C2c3cc4c(c(O)c3CC3COC(=O)C32)OCO4)cc(OC)c1OC` (centres undefined), the melting point was 234 °C.

`CN1Cc2c(N)cccc2C(c2ccccc2)C1` (centres undefined) had a melting point of 179 °C.

In turn, `C1CCN(CCN2CCCCC2)CC1` yielded a melting point of -0.5 °C.

Consider `c1ccc(CN(CC2=NCCN2)c2ccccc2)cc1`, for which the melting point is 120 °C.

Regarding `CC1=C(C)C2=CC=C3C(O)=C(CC(C)O)C(=O)C(O)=C3C2(C)CC1=O` (centres undefined), the melting point came out at 187 °C.

On to `Cc1ccc(S(=O)(=O)OCC#N)cc1`, for which the melting point fell in the range of 50 to 51 °C.

As to `NCCSS(=O)(=O)O`, the melting point was in the range of 191 to 194 °C.

Turning to `CCCCCCCF`, the melting point is -73 °C.

`COc1ccc2c(c1)C(=O)CC(c1ccccc1)O2` (centres undefined): the melting point came out at 142 °C.

`COc1cc2c(cc1OC)C(c1cc(Cl)ccc1[N+](=O)[O-])=NCC2`: the melting point lay in the range of 169 to 170 °C.

The compound `O=[N+]([O-])c1sc2ccccc2c1Br` had a melting point of 165 to 167 °C.

In turn, `Nc1cc(C(F)(F)F)ccc1N1CCOCC1` displayed a melting point of 135 to 137 °C.

For `O=C(O)c1cnccc1Cl`, the melting point is 200 to 215 °C.

With `CCOC(=O)C(C(=O)OCC)=C(C(=O)OCC)C(=O)OCC`, the melting point was 58 °C.

With `Cc1cccc(N2CC(CO)OC2=O)c1` (centres undefined), the melting point is 76 °C.

Compound `COC(=O)c1ccccc1SC` came in with a melting point of 65 °C.

Regarding `CCCCCCNC(=O)C=Cc1ccc(O)c(O)c1`, the melting point worked out at 142 °C.

`COc1c(C)cc(C(=O)O)cc1C`: the melting point was 190 to 194 °C.

Regarding `COC(=O)c1ccc2ccccc2c1`, the melting point was found to be 77 °C.

In the case of `O=C(O)C(Br)CBr` (centres undefined), the melting point was 66.5 °C.

`CCOC(=O)c1sc(C)nc1-c1ccccc1` showed a melting point of 44 to 47 °C.

For the compound `O=C1CCSCC1`, the melting point lay in the range of 62 to 65 °C.

As for `CCC(=O)Oc1ccc(C(CC)=C(CC)c2ccc(OC(=O)CC)cc2)cc1`, the melting point is 104 °C.

Regarding `NC12c3ccccc3C(c3ccccc31)c1ccccc12`, the melting point was found to be 220 °C.

For the compound `Cc1cccc2c1CC2=O`, the melting point came to 56 °C.

Compound `C#CC1(O)CCC2C3CCC4=CC(=O)CCC4(C)C3CCC21C` (centres undefined) registered a melting point of 269 °C.

For the compound `Cc1nn(-c2ccccc2)nc1C(=O)O`, the melting point worked out at 203 °C.

In turn, `ClCc1c2ccccc2cc2ccccc12` returned a melting point of 140 °C.

In turn, `Cc1onc(-c2ccccc2Cl)c1C(=O)Cl` gave a melting point of 42 °C.

Take `C/C(=N\O)C1CC2(C)CCC1C2(C)C` (centres undefined): the melting point is 95.5 °C.

The compound `Clc1c(Cl)c(Cl)c2c(c1Cl)OC1Cc3ccccc3C1O2` (centres undefined) registered a melting point of 159 °C.

Take `CN(C(=S)Cl)c1ccc(Br)cc1`: the melting point is 101 to 104 °C.
